Assay [1] concerns the target human A2a adenosine receptor (Homo sapiens (Human), UniProt P29274). The experiment in a line: A2a receptor affinity radioligand binding assay ([3H] SCH58261). The settings on record: membranes from HEK293 or CHO cells expressing human A2a receptor. As to the method: The A2a receptor affinity binding assay measured the amount of binding of a tritiated ligand with high affinity for the A2a adenosine receptor to membranes made from HEK293 or CHO cells recombinantly expressing the human A2a adenosine receptor, in the presence of varying concentrations of a compound of the invention.
Measurement of A2a Binding Affinity Using Radioligand Binding
148 μL (5 μg/mL) membranes (Perkin Elmer, Cat. No. RBHA2aM400UA) and 2 μL compounds of the invention to be tested (test compound) were transferred to individual wells of a 96-well polypropylene assay plate and incubated for 15 to 30 minutes at room temperature. [^3H] SCH58261 ((7-(2-phenylethyl)-5-amino-2-(2-furyl)-pyrazolo-[4,3-e]-1,2,4-triazolo[1,5-c]pyrimidine)) was diluted in assay buffer (50 mM Tris pH 7.4, 10 mM MgCl2, 0.005% Tween20) to a concentration of 4 nM and 50 μL transferred to each well of the assay plate. To define total and non-specific binding, wells containing 1% DMSO and 1 μM ZM241385 (Tocris Bioscience, Cat. No. 1036) respectively, were also included. The assay plate was incubated at room temperature for 60 minutes with agitation. Using a FilterMate Harvester® (Perkin Elmer), the contents of the assay plate were filtered through a UniFilter-96® PEI coated plate (Perkin Elmer Cat. No. 6005274 or 6005277). Filtering was achieved by aspirating the contents of the assay plate for 5 seconds, then washing and aspirating the contents three times with ice-cooled wash buffer (50 mM Tris-HCl pH 7.4, 150 mM NaCl) and allowing the vacuum manifold to dry the plate for 30 seconds. The filter plate was incubated for at least 1 hour at 55° C., and allowed to dry. The bottom of the filter plate was sealed with backing tape. 40 μL Ultima Gold™ (Perkin Elmer, Cat. No. 6013329) was added to each well of the filter plate and the top of the plate was sealed with TopSeal-A PLUS® clear plate seal (Perkin Elmer, Cat. No. 6050185). The plate was incubated for at least 20 minutes, and then the amount of radioactivity remaining in each well was determined using a TopCount® (Perkin Elmer) scintillation counter. After normalization to total and non-specific binding, the percent effect at each compound concentration was calculated. The plot of percent effect versus the log of compound concentration was analyzed electronically using a 4-parameter logistic fit based on the Levenberg-Marquardt algorithm to generate IC50 values.

Assay [2] has as its target human A2b adenosine receptor (Homo sapiens (Human), UniProt P29275). The experiment in a line: A2b radioligand filtration binding assay. The settings on record: membranes from HEK293 cells expressing human A2b receptor. The procedure: Measurement of A2b Binding Affinity
The reported affinity of the compounds of the invention for the human A2b adenosine receptor was determined experimentally using a radioligand filtration binding assay. This assay measures the amount of binding of a tritiated proprietary A2b receptor antagonist, in the presence and absence of a compound of the invention, to membranes made from HEK293 cells recombinantly expressing the human A2b adenosine receptor (Perkin Elmer, Cat. No. ES-013-C).
148 μL (135 μg/mL) membranes and 2 μL test compounds were transferred to individual wells of a 96-well polypropylene assay plate and incubated for 15 to 30 minutes at room temperature with agitation. Tritiated radioligand was diluted to a concentration of 14 nM in assay buffer (phosphate buffered saline without Magnesium and Calcium, pH 7.4; GE Healthcare Life Sciences, Cat. No. SH30256.01) and then 50 μL of the solution were transferred to each well of the assay plate. To define total and non-specific binding, wells containing 1% DMSO and 20 μM N-ethylcarboxamidoadenosine (Tocris Bioscience, Cat. No. 1691) respectively, were also included. The wells of the assay plate were incubated at room temperature for 60 minutes with agitation, then filtered using a FilterMate Harvester® (Perkin Elmer) or similar equipment through a UniFilter-96® PEI coated plate (Perkin Elmer Cat. No. 6005274 or 6005277). Filtering was achieved by aspirating the contents of the assay plate for 5 seconds, then washing and aspirating the contents three times with ice-cooled wash buffer (assay buffer supplemented with 0.0025% Brij58) and allowing the vacuum manifold to dry the plate for 30 seconds. The filter plate was incubated for at least 1 hour at 55° C. and allowed to dry. The bottom of the filter plate was then sealed with backing tape. 40 μL Ultima Gold™ (Perkin Elmer, Cat. No. 6013329) was added to each well of the filter plate and the top of the plate was sealed with TopSeal-A PLUS® clear plate seal (Perkin Elmer, Cat. No. 6050185). The plates were then incubated for at least 20 minutes, and then the amount of radioactivity remaining in each well was determined using a TopCount® (Perkin Elmer) scintillation counter. After normalization to total and non-specific binding, the percent effect at each compound concentration was calculated. The plot of percent effect versus the log of compound concentration was analyzed electronically using a 4-parameter logistic fit based on the Levenberg-Marquardt algorithm to generate IC50 values.

pIC50: −log10 of the molar value.

Sequence of human A2a adenosine receptor (P29274 whole entry): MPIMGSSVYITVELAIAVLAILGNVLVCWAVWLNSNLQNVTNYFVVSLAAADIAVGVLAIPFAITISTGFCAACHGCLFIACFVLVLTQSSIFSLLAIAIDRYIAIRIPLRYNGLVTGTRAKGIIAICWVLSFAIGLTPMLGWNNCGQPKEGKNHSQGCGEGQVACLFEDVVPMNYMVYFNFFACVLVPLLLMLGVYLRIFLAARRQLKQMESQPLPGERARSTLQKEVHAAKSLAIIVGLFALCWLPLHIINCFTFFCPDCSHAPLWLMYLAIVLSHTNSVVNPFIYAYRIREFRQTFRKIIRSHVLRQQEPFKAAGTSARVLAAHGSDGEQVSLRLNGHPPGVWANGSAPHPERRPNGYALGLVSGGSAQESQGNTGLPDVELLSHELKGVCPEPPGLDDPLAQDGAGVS
Sequence of human A2b adenosine receptor (P29275 whole entry): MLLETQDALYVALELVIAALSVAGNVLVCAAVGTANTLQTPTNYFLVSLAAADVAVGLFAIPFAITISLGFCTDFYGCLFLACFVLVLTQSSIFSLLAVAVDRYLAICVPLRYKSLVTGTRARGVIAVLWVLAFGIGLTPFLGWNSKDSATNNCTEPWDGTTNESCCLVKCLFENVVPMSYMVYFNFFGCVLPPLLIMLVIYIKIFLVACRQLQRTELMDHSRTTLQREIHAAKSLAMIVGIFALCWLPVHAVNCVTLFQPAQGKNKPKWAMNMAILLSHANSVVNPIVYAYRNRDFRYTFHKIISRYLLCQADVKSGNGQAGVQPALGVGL

`COc1cc(F)cc2c1nc(N)n1nc(C3CCCCN(c4cnn(CC(C)(C)O)c4)C3)nc21` (racemic) [Example 39, rac-1-(4-(3-(5-amino-9-fluoro-7-methoxy-[1,2,4]triazolo [1,5-c]quinazoln-2-yl)azepan-1-yl)-1H-pyrazol-1-yl)-2-methylpropan-2-ol]: the pIC50 in assay [1] is 8.96; in assay [2] it was 7.36.

Regarding `COc1cc2nc(N)n3nc(C4CCCN(c5cnn(CC(C)(C)O)c5)C4=O)nc3c2cc1F` (racemic) [Example 139, rac-3-(5-amino-9-fluoro-8-methoxy-[1,2,4]triazolo[1,5-c]quinazolin-2-yl)-1-(1-(2-hydroxy-2-methylpropyl)-1H-pyrazol-4-yl)piperidin-2-one], the pIC50 in assay [1] is 7.77; in assay [2], 5.55.

For `COc1cc2nc(N)n3nc([C@@H]4CCCN(c5cnn(C(C)C(C)(C)O)c5)C4)nc3c2cc1F` (single isomer, unassigned) [Example 12, (S or R)-3-(4-((R)-3-(5-amino-9-fluoro-8-methoxy-[1,2,4]triazolo [1,5-c]quinazolin-2-yl)piperidin-1-yl)-1H-pyrazol-1-yl)-2-methylbutan-2-ol], the pIC50 in assay [1] is 8.77; in assay [2], 7.12.

For the compound `COc1cc2nc(N)n3nc([C@@H]4CCCN(c5cnn(C(C)C(C)(C)O)c5)C4)nc3c2cc1F` (single isomer, unassigned) [Example 13, (R or S)-3-(4-((R)-3-(5-amino-9-fluoro-8-methoxy-[1,2,4]triazolo[1,5-c]quinazolin-2-yl)piperidin-l-yl)-1H-pyrazol-1-yl)-2-methylbutan-2-ol], the pIC50 in assay [1] is 9.15; in assay [2], 7.14.

Take `COc1cc2nc(N)n3nc(C4CCC(C)N(c5cnn(CC(C)(C)O)c5C)C4)nc3c2cc1F` (single isomer, unassigned) [Example 41, 1-(4-((2S,5R or 2R,5S)-5-(5-amino-9-fluoro-8-methoxy-[1,2,4]triazolo[1,5-c]quinazolin-2-yl)-2-methylpiperidin-1-yl)-5-methyl-1H-pyrazol-1-yl)-2-methylpropan-2-ol]: the pIC50 in assay [1] is 8.92; in assay [2], 7.37.

For the compound `COc1cc2nc(N)n3nc(C4CCC(C)N(c5cn(CC(C)(C)O)nc5C)C4)nc3c2cc1F` (single isomer, unassigned) [Example 42, 1-(4-((2S,5R or 2R,5S)-5-(5-amino-9-fluoro-8-methoxy-[1,2,4]triazolo[1,5-c]quinazolin-2-yl)-2-methylpiperidin-1-yl)-3-methyl-1H-pyrazol-1-yl)-2-methylpropan-2-ol], the figures for the negative logarithm of the IC50 (pIC50) in assay [1] and in assay [2] were 8.37 and 6.32, respectively.

For the compound `COc1cc2nc(N)n3nc(C4CCC(C)N(c5cnn(C(C)(C)C(C)(C)O)c5)C4)nc3c2cc1F` (single isomer, unassigned) [Example 43, 3-(4-((2S,5R or 2R,5S)-5-(5-amino-9-fluoro-8-methoxy-[1,2,4]triazolo[1,5-c]quinazolin-2-yl)-2-methylpiperidin-1-yl)-1H-pyrazol-1-yl)-2,3-dimethylbutan-2-ol], the figures for the pIC50 in assay [1] and in assay [2] were 9.15 and 8.47, respectively.

Take `COc1cc2nc(N)n3nc(C4CCC(C)N(c5cnn(C6CCOCC6)c5)C4)nc3c2cc1F` (single isomer, unassigned) [Example 44, 9-fluoro-8-methoxy-2-((3R,6S or 3S,6R)-6-methyl-1-(1-(tetrahydro-2H-pyran-4-yl)-1H-pyrazol-4-yl)piperidin-3-yl)-[1,2,4]triazolo[1,5-c]quinazolin-5-amine]: the pIC50 is 8.89 in assay [1] and 7.69 in assay [2].

Turning to `COc1cc2nc(N)n3nc(C4CCC(C)N(c5cnn(C6CCOCC6)c5C)C4)nc3c2cc1F` (single isomer, unassigned) [Example 45, 9-fluoro-8-methoxy-2-((3R,6S or 3S,6R)-6-methyl-1-(5-methyl-1-(tetrahydro-2H-pyran-4-yl)-1H-pyrazol-4-yl)piperidin-3-yl)-[1,2,4]triazolo[1,5-c]quinazolin-5-amine], the negative-log IC50 (pIC50) in assay [1] is 8.74; in assay [2] it was 6.82.

Regarding `COc1cc2nc(N)n3nc(C4CCC(C)N(c5cn(C6CCOCC6)nc5C)C4)nc3c2cc1F` (single isomer, unassigned) [Example 46, 9-fluoro-8-methoxy-24(3R,6S or 3S,6R)-6-methyl-1-(3-methyl-1-(tetrahydro-2H-pyran-4-yl)-1H-pyrazol-4-yl)piperidin-3-yl) [1,2,4]triazolo[1,5-c]quinazolin-5-amine], the results for the negative logarithm of the IC50 (pIC50) in assay [1] and in assay [2] were 9.22 and 7.06, respectively.

As to `COc1cc2nc(N)n3nc(C4CCC(C)N(c5cnn(CC6(CF)COC6)c5)C4)nc3c2cc1F` (single isomer, unassigned) [Example 47, 9-fluor-2-((3R,6S or 3S,6R)-1-(1((3-(fluoromethyl)oxetan-3-yl)methyl)-1H-pyrazol-4-yl)-6-methylpiperidin-3-yl)-8-methoxy-[1,2,4]triazolo[1,5-c]quinazolin-5-amine], the pIC50 in assay [1] is 8.09; in assay [2], 6.55.

As to `COc1cc2nc(N)n3nc([C@@H]4CC[C@H](C)N(c5cnn(C(C)C(C)(C)O)c5)C4)nc3c2cc1F` (single isomer, unassigned) [Example 48, (R or S)-3-(4-((2S,5R or 2R,5S)-5-(5-amino-9-fluoro-8-methoxy-[1,2,4]triazolo[1,5-c]quinazolin-2-yl)-2-methylpiperidin-1-yl)-1H-pyrazol-1-yl)-2-methylbutan-2-ol], the values for the pIC50 in assay [1] and in assay [2] were 9.22 and 7.75, respectively.

Consider `COc1cc2nc(N)n3nc([C@@H]4CC[C@H](C)N(c5cnn([C@@H](C)C(C)(C)O)c5)C4)nc3c2cc1F` (single isomer, unassigned) [Example 49, (S or R)-3-(4-((2S,5R or 2R,5S)-5-(5-amino-9-fluoro-8-methoxy-[1,2,4]triazolo[1,5-c]quinazolin-2-yl)-2-methylpiperidin-1-yl)-1H-pyrazol-1-yl)-2-methylbutan-2-ol], for which the pIC50 in assay [1] was 9.52; in assay [2] it was 8.57.

Turning to `COc1cc2nc(N)n3nc([C@H]4CC[C@@H](C)N(c5cn(CC6(O)CCC6)nc5C)C4)nc3c2cc1F` (single isomer, unassigned) [Example 50, 1-((4-((2R,5S or 2S,5R)-5-(5-amino-9-fluoro-8-methoxy-[1,2,4]triazolo[1,5-c]quinazolin-2-yl)-2-methylpiperidin-1-yl)-3-methyl-1H-pyrazol-1-yl)methyl)cyclobutan-1-ol], the pIC50 in assay [1] is 7.74; in assay [2] it was 5.72.

For the compound `COc1cc2nc(N)n3nc([C@H]4CC[C@@H](C)N(c5cnn(CC6(O)CCC6)c5C)C4)nc3c2cc1F` (single isomer, unassigned) [Example 51, 1-((4-((2R,5S or 2S,5R)-5-(5-amino-9-fluoro-8-methoxy-[1,2,4]triazolo[1,5-c]quinazolin-2-yl)-2-methylpiperidin-1-yl)-5-methyl-1H-pyrazol-1-yl)methyl)cyclobutan-1-ol], the pIC50 in assay [1] was 7.68; in assay [2], 5.68.

Values taken from US11312719B2, “9-substituted amino triazolo quinazoline derivatives as adenosine receptor antagonists, pharmaceutical compositions and their use” (Merck Sharp & Dohme Corp., priority 2018, dated 2022).
